Measurements as given in patent US20250154554A1, “ANTIMICROBIAL SUSCEPTIBILITY” (priority 2022, published 2025).
Read-outs that look alike come from different tables or passages of the source.

Experiments:
[1] = test system: Gram-positive bacteria (Staphylococcus spp, Enterococcus spp); assay: Reference method (RM): disk diffusion and/or broth microdilution, S/I/R classification, Gram-positive strains; assay type: cell-based; details: for CLSI RM R / EUCAST RM R: number of strains resistant; for CLSI RM S / EUCAST RM S: number of strains susceptible;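 on all read-outs here: susceptibility categories assigned with the latest EUCAST breakpoint tables or CLSI M100 29th edition breakpoints, with quality control of the reference methods following EUCAST and CLSI guidance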
Protocol: (§1) For Colistin (on gram-negative bacteria) and vancomycin (in the case of Staphylococcus), the method used to determine the antimicrobial susceptibility was broth microdilution [5]. […] Standard methodologies were performed from the same inoculum used to spike the blood cultures. Quality control of the reference methods was also performed according to the recommendations of EUCAST and CLSI.
(§2) All the strains were classified as S, I or R according the reference methods. MIC was determined for vancomycin and colistin. The presence of ESBL on Enterobacterales group I, together with the screening for ESBL on Enterobacterales group II, and the screening for AmpC and presence of carbapenemases according EUCAST protocol for detection of mechanisms of resistance were also performed.
(§3) Positive blood cultures were spiked in blood agar and colonies identified and submitted to antimicrobial susceptibility assay according reference disk diffusion method and/or to MIC values determined by microdilution. The results were analysed using the most recent EUCAST breakpoint tables and the M100 (29th ed.) breakpoint tables from CLSI.

S. aureus = assay: MIC of strains giving very major errors (VME); assay type: cell-based; details: strain ST 099, site 2
Protocol: as §1, §3

K. pneumoniae = assay: MIC of strains giving very major errors (VME); assay type: cell-based
Protocol: as §1, §3

[2] = test system: Gram-negative bacteria (Enterobacterales, Pseudomonas, Acinetobacter); details: for RM I (strains intermediate by reference method) / RM R (strains resistant by reference method) / RM S (strains susceptible by reference method): total of 3 sites, blood cultures; for CLSI RM I: number of strains I; for CLSI RM R / EUCAST RM R: number of strains resistant; for CLSI RM S / EUCAST RM S: number of strains susceptible
Protocol: as §1, §2, §3

E. coli = assay: MIC of strains giving very major errors (VME); assay type: cell-based; details: strain EB 286, site 3
Protocol: as §1, §3

Staphylococcus aureus = assay: Vancomycin MIC by FASTgrampos kit versus broth microdilution (reference method); assay type: cell-based
[3] = CLSI, FASTinov, Porto, spiked blood cultures
[4] = CLSI, total of 3 sites, blood cultures
[5] = EUCAST, FASTinov, Porto, spiked blood cultures
[6] = EUCAST, total of 3 sites, blood cultures
[7] = CLSI, Hospital Ramon et Cajal, Madrid, patients blood cultures
[8] = CLSI, Hospital S. João, Porto, patients' blood cultures
[9] = EUCAST, Hospital Ramon et Cajal, Madrid, patients blood cultures
[10] = EUCAST, Hospital S. João, Porto, patients' blood cultures
[11] = CLSI, FASTinov, Porto, spiked on blood cultures
[12] = CLSI, Hospital Ramon et Cajal, Madrid, patients' blood cultures
[13] = EUCAST, FASTinov, Porto, spiked on blood cultures
[14] = EUCAST, Hospital Ramon et Cajal, Madrid, patients' blood cultures

With Penicillin the “RM R (strains resistant by reference method)” value [1, 3] was 82, the “RM S (strains susceptible by reference method)” value [1, 3] was 49 and the “RM R (strains resistant by reference method)” value [1, 4] was 209. For the same compound, the “RM S (strains susceptible by reference method)” value [1, 4] was 94, the “RM R (strains resistant by reference method)” value [1, 5] was 28 and the “RM S (strains susceptible by reference method)” value [1, 5] was 7. For the same compound, the “RM R (strains resistant by reference method)” value [1, 6] was 56, the “RM S (strains susceptible by reference method)” value [1, 6] was 19 and the “CLSI RM R” value [1, 7] was 53. For the same compound, the “CLSI RM R” value [1, 8] was 74, the “EUCAST RM R” value [1, 9] was 10 and the “EUCAST RM R” value [1, 10] was 18. The “CLSI RM S” value [1, 7] was 15, the “CLSI RM S” value [1, 8] was 30 and the “EUCAST RM S” value [1, 9] was 2. The “EUCAST RM S” value [1, 10] was 10 and the “MIC” value (S. aureus) was 0.25 µg/mL.

With Ceftolozane-tazobactam the “MIC” value (K. pneumoniae; strain EB 032, site 3) was 4 µg/mL, the “MIC” value (K. pneumoniae; strain EB 101, site 1) was >32 µg/mL and the “MIC” value (K. pneumoniae; strain EB 677, site 1) was 16 µg/mL. The “MIC” value (K. pneumoniae; strain EB 679, site 1) was >32 µg/mL, the “RM I (strains intermediate by reference method)” value ([2]; CLSI) was 5 and the “RM R (strains resistant by reference method)” value ([2]; CLSI) was 40. The “RM S (strains susceptible by reference method)” value ([2]; CLSI) was 267, the “RM R (strains resistant by reference method)” value ([2]; EUCAST) was 45 and the “RM S (strains susceptible by reference method)” value ([2]; EUCAST) was 267. For the same compound, the “CLSI RM I” value [2, 11] was 4, the “CLSI RM I” value [2, 8] was 1 and the “CLSI RM R” value [2, 11] was 37. For the same compound, the “CLSI RM R” value [2, 12] was 3, the “EUCAST RM R” value [2, 13] was 41 and the “EUCAST RM R” value [2, 14] was 3. For the same compound, the “EUCAST RM R” value [2, 10] was 1, the “CLSI RM S” value [2, 11] was 112 and the “CLSI RM S” value [2, 12] was 75. The “CLSI RM S” value [2, 8] was 80, the “EUCAST RM S” value [2, 13] was 112 and the “EUCAST RM S” value [2, 14] was 75. For the same compound, the “EUCAST RM S” value [2, 10] was 80.

For Gentamicin, the “RM R (strains resistant by reference method)” value [1, 3] was 15, the “RM S (strains susceptible by reference method)” value [1, 3] was 51 and the “RM R (strains resistant by reference method)” value [1, 4] was 54. For the same compound, the “RM S (strains susceptible by reference method)” value [1, 4] was 147, the “RM R (strains resistant by reference method)” value [1, 5] was 29 and the “RM S (strains susceptible by reference method)” value [1, 5] was 37. The “RM R (strains resistant by reference method)” value [1, 6] was 70, the “RM S (strains susceptible by reference method)” value [1, 6] was 131 and the “CLSI RM R” value [1, 7] was 15. The “CLSI RM R” value [1, 8] was 24, the “EUCAST RM R” value [1, 9] was 17 and the “EUCAST RM R” value [1, 10] was 24. For the same compound, the “CLSI RM S” value [1, 7] was 28, the “CLSI RM S” value [1, 8] was 68 and the “EUCAST RM S” value [1, 9] was 26. For the same compound, the “EUCAST RM S” value [1, 10] was 68, the “MIC” value (E. coli) was 8 µg/mL and the “RM I (strains intermediate by reference method)” value ([2]; CLSI) was 6. For the same compound, the “RM R (strains resistant by reference method)” value ([2]; CLSI) was 77, the “RM S (strains susceptible by reference method)” value ([2]; CLSI) was 262 and the “RM R (strains resistant by reference method)” value ([2]; EUCAST) was 69. For the same compound, the “RM S (strains susceptible by reference method)” value ([2]; EUCAST) was 194, the “CLSI RM I” value [2, 11] was 3 and the “CLSI RM I” value [2, 12] was 1. For the same compound, the “CLSI RM I” value [2, 8] was 2, the “CLSI RM R” value [2, 11] was 60 and the “CLSI RM R” value [2, 12] was 9. For the same compound, the “CLSI RM R” value [2, 8] was 8, the “EUCAST RM R” value [2, 13] was 47 and the “EUCAST RM R” value [2, 14] was 10. For the same compound, the “EUCAST RM R” value [2, 10] was 12, the “CLSI RM S” value [2, 11] was 120 and the “CLSI RM S” value [2, 12] was 70. The “CLSI RM S” value [2, 8] was 72, the “EUCAST RM S” value [2, 13] was 64 and the “EUCAST RM S” value [2, 14] was 65. For the same compound, the “EUCAST RM S” value [2, 10] was 65.

In the case of `CN[C@H](CC(C)C)C(=O)N[C@H]1C(=O)N[C@@H](CC(N)=O)C(=O)N[C@H]2C(=O)N[C@H]3C(=O)N[C@H](C(=O)N[C@H](C(=O)O)c4cc(O)cc(O)c4-c4cc3ccc4O)[C@H](O)c3ccc(c(Cl)c3)Oc3cc2cc(c3O[C@@H]2O[C@H](CO)[C@@H](O)[C@H](O)[C@H]2O[C@H]2C[C@](C)(N)[C@H](O)[C@H](C)O2)Oc2ccc(cc2Cl)[C@H]1O` [Vancomycin], the “RM I (strains intermediate by reference method)” value [1, 3] is reported as 3, the “RM R (strains resistant by reference method)” value [1, 3] is reported as 7 and the “RM S (strains susceptible by reference method)” value [1, 3] is reported as 100. For the same compound, the “RM I (strains intermediate by reference method)” value [1, 4] was 3, the “RM R (strains resistant by reference method)” value [1, 4] was 8 and the “RM S (strains susceptible by reference method)” value [1, 4] was 254. For the same compound, the “RM R (strains resistant by reference method)” value [1, 5] was 10, the “RM S (strains susceptible by reference method)” value [1, 5] was 100 and the “RM R (strains resistant by reference method)” value [1, 6] was 11. For the same compound, the “RM S (strains susceptible by reference method)” value [1, 6] was 254, the “CLSI RM R” value [1, 8] was 1 and the “EUCAST RM R” value [1, 10] was 1. For the same compound, the “CLSI RM S” value [1, 7] was 56, the “CLSI RM S” value [1, 8] was 98 and the “EUCAST RM S” value [1, 9] was 56. The “EUCAST RM S” value [1, 10] was 98, the “number of S. aureus strains in MIC distribution” value (“number of S. aureus strains” for short) (Staphylococcus aureus; MIC by FASTgrampos 0.25 mg/L, MIC by microdilution 0.25 mg/L) was 2 and the “number of S. aureus strains” value (Staphylococcus aureus; MIC by FASTgrampos 0.25 mg/L, MIC by microdilution 0.5 mg/L) was 15. The “number of S. aureus strains” value (Staphylococcus aureus; MIC by FASTgrampos 0.5 mg/L, MIC by microdilution 0.5 mg/L) was 21, the “number of S. aureus strains” value (Staphylococcus aureus; MIC by FASTgrampos 0.5 mg/L, MIC by microdilution 1 mg/L) was 10 and the “number of S. aureus strains” value (Staphylococcus aureus; MIC by FASTgrampos 1 mg/L, MIC by microdilution 0.5 mg/L) was 3. For the same compound, the “number of S. aureus strains” value (Staphylococcus aureus; MIC by FASTgrampos 1 mg/L, MIC by microdilution 1 mg/L) was 7, the “number of S. aureus strains” value (Staphylococcus aureus; MIC by FASTgrampos 2 mg/L, MIC by microdilution 1 mg/L) was 3 and the “number of S. aureus strains” value (Staphylococcus aureus; MIC by FASTgrampos 2 mg/L, MIC by microdilution 2 mg/L) was 2.
